Values quoted from earlier work in US20150315247A1, “High-affinity peptide-based anticancer vaccination to overcome tumor resistance to immunostimulatory antibodies and to identify TCRs that can be used successfully in adoptive T cell therapy” (priority 2014, published 2015).
pIC50: −log10 of the molar value.

Molecular target: T1, H-2K^b (mouse MHC) (Mus musculus, UniProt P01901)
T1 sequence (P01901 22-369): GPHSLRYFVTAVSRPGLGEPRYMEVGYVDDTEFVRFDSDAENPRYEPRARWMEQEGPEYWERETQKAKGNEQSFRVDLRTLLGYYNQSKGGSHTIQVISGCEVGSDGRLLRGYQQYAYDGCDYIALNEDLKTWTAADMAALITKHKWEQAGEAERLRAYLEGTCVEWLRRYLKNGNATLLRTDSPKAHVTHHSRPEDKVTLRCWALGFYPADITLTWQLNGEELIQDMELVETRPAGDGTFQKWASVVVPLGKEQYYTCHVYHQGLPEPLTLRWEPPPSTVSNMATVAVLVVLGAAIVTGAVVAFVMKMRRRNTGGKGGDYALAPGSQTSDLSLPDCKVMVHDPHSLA
T1 sequence (P01887 21-119 partner): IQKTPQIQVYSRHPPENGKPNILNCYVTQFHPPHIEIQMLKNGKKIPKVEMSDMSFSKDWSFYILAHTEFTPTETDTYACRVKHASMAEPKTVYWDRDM
Conditions: SIINFEKL peptide binding to H-2K^b; read-out: peptide-H-2K^b affinity IC50

With SIINFEKL [SIINFEKL peptide] as the sequence, how does the pIC50 read?
The pIC50 was 9.05.
